How the values were obtained:
[1] = biological target: T1, ABCB1 (Homo sapiens, UniProt P08183); settings: cited from earlier work; note: key: the inhibitor is active (+); it is inactive (−); the effect is unknown (?)
[2] = biological target: ABCC1 (Homo sapiens, UniProt P33527); settings: cited from earlier work; note: key: the inhibitor is active (+); it is inactive (−); the effect is unknown (?)
[3] = biological target: T2, ABCG2 (Homo sapiens, UniProt Q9UNQ0); settings: cited from earlier work
T2 sequence (Q9UNQ0 1-655): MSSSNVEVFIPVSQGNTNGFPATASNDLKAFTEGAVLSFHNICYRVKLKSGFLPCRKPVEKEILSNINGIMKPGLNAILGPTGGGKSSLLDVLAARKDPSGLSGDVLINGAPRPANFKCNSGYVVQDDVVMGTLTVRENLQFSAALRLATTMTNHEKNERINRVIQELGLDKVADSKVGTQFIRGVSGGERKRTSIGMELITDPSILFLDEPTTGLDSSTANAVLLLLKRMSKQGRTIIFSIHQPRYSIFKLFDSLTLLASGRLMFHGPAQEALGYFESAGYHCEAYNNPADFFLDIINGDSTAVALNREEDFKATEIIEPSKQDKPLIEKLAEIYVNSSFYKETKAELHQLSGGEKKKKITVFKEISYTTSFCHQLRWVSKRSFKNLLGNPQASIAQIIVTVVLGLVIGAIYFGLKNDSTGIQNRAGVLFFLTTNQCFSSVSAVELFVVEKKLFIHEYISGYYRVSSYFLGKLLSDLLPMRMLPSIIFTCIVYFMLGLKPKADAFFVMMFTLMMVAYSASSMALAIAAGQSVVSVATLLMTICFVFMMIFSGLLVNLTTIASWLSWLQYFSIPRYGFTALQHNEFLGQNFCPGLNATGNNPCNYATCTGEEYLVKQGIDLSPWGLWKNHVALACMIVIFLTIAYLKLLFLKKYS

[4] = biological target: T3, BCRP/ABCG2 (Homo sapiens, UniProt Q9UNQ0); test: Flow cytometry: mitoxantrone efflux induced by ABCG2 in transfected HEK-293 cells; assay type: cell-based
T3 construct: expressed in transfected cells; host or cells: HEK-293 transfected with pcDNA3.1-ABCG2
T3 sequence (Q9UNQ0 1-655): T2 sequence (Q9UNQ0 1-655)
Excerpt: (§1) Cell cultures. The human […] HEK-293 transfected with the vector pcDNA3.1 including or not the gene encoding ABCG2 (Robey, R. W., Honjo, Y., Morisaki, K., Nadjem, T. A., Runge, S., Risbood, M., Poruchynsky, M. S., Bates, S. E. 2003, Br. J. Cancer 89(10) 1971-1978) was used to test the efficacy of the products on ABCG2. The newborn hamster kidney cell line BHK21 either natural (negative control) or transfected with the vector pNUT-MRP/His expressing the gene encoding ABCC1 (Chang, Xiu-Bao, Hou, Yue-Xian, Riordan, John R. 1997, J. Biol. Chem. 272(49) 30962-30968) was used to test the efficacy of the products on ABCC1. The cell line NIH3T3 natural or transfected with the vector pHaMDR1/A expressing ABCB1 (Cardarelli, Carol O., Aksentijevich, Ivan, Pastan, Ira, Gottesman, Michael M. 1995 Cancer Res. 55 1086-1091) was used to test the efficacy of the compounds on ABCB1. The various cell types are cultured according to the protocols described previously (Robey, R. W., Honjo, Y., Morisaki, K., Nadjem, T. A., Runge, S., Risbood, M., Poruchynsky, M. S., Bates, S. E. 2003, Br. J. Cancer 89(10) 1971-1978 for the line HEK293, Chang, Xiu-Bao, Hou, Yue-Xian, Riordan, John R. 1997, J. Biol. Chem. 272(49) 30962-30968 for the line BHK21 and Cardarelli, Carol O., Aksentijevich, Ivan, Pastan, Ira, Gottesman, Michael M. 1995 Cancer Res. 55 1086-1091 for the line NIH3T3).
(§2) FIG. 1 schematically illustrates an efflux of substrate induced by a typical ABC transporter. The substrates S, such as mitoxantrone effluxed with ABCG2 and ABCB1 or daunorubicin effluxed with ABCC1, are accumulated in the cells and expelled by the transporter T, leading to a decrease in intracellular fluorescence. In the case of accumulation of the product, typically by inhibition of the efflux protein, the intracellular fluorescence increases.
(§3) Flow cytometry. Transfected or untransfected HEK-293 and BHK-21 cells are in a first stage placed in contact with substrate (5 μM mitoxantrone or 1 μM daunorubicin depending on the transporter). The substrate is accumulated for 30 minutes at 37° C. in the presence or absence of varied concentrations of the test molecules, at 0.5% of DMSO final. After washing with PBS, the cells are incubated in medium containing the same concentrations of test molecules as previously, for 1 hour at 37° C. The drug intracellular fluorescence is measured with a FACscan flow cytometer (Becton Dickinson, Mountain View, Calif.). The fluorescent substrates are excited at 488 nm; the fluorescence emission of mitoxantrone (MTX) is measured at 650 nm and that of daunorubicin is measured at 530 nm. The efficacy of the test molecules is estimated by means of equation 1:
(§4) % efficacy=100×(FA−FBG)/(FC−FBG),
(§5) in which: • FA corresponds to the intracellular level of substrate measured in the cells overexpressing the transporter T (corresponding to the lowest level of fluorescence in the absence of inhibitor), • FC corresponds to the fluorescence in the control cells not expressing the test transporter. This is thus the maximum accumulation of substrate in the cells), • FBG corresponds to the fluorescence measured in the absence of substrate and in the presence of inhibitor.
(§6) The compounds presented in TABLES 2 to 5 were tested by flow cytometry on mammalian cell lines selectively expressing the efflux proteins ABCG2, ABCB1 or ABCC1, as described previously.
(§7) The mitoxantrone efflux induced by ABCG2 or ABCB1 and the daunorubicin efflux induced by ABCC1 are estimated by flow cytometry, as described previously, at 10 μM of each test compound, and then at 2 μM for the compounds showing at least 80% efficacy at 10 μM. The concentration inducing 50% inhibition (IC50) was estimated for the most efficient aza derivatives. The values are obtained by three independent experiments and were adjusted using the SigmaPlot software.

[5] = biological target: T4, P-gp/ABCB1 (Homo sapiens, UniProt P08183); test: Flow cytometry: mitoxantrone efflux induced by ABCB1 in transfected NIH3T3 cells; assay type: cell-based
T4 construct: expressed in transfected cells; host or cells: NIH3T3 transfected with pHaMDR1/A
T4 sequence (P08183 whole entry): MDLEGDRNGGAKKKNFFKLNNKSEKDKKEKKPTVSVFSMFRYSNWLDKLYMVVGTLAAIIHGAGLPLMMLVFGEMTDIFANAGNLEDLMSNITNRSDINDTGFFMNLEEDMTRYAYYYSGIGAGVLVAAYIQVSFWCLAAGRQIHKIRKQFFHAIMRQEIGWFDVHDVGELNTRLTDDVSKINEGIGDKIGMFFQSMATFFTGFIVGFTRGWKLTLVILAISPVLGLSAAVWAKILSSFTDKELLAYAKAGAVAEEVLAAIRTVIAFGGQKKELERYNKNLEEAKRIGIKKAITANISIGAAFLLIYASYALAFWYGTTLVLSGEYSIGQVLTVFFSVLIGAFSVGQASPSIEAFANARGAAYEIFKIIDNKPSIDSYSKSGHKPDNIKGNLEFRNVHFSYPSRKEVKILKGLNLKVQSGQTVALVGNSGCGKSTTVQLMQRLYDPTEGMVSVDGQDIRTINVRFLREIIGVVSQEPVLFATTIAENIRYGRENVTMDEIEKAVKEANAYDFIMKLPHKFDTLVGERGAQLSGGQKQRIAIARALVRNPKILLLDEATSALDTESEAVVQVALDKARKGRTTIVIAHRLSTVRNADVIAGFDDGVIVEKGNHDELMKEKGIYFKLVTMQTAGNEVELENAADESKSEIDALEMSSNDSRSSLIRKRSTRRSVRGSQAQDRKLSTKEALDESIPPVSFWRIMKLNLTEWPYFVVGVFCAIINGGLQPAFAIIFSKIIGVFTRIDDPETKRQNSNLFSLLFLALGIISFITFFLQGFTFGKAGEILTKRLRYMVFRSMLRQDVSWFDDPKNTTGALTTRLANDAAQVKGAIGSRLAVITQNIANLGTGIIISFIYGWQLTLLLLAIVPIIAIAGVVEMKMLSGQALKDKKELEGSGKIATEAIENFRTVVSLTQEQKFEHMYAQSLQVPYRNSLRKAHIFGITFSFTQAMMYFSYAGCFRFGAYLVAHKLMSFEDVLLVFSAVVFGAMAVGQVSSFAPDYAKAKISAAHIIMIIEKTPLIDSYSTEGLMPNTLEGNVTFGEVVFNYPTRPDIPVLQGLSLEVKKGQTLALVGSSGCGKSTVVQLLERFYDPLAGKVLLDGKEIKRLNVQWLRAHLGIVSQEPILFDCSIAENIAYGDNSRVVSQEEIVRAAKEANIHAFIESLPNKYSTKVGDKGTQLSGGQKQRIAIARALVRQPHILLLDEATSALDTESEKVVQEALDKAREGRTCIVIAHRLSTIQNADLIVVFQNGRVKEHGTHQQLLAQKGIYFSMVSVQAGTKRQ
Excerpt: as §1, §2, §3, §4, §5, §6, §7

[6] = biological target: T1, ABCB1; test: Type of inhibition: daunorubicin efflux at varied substrate and inhibitor concentrations (FIG. 11); assay type: cell-based; design: expressed in transfected cells; host or cells: NIH3T3 transfected with pHaMDR1/A; settings: daunorubicin efflux as a function of its concentration

T1 sequence (P08183 whole entry): as above
ABCC1, sequence (P33527 whole entry): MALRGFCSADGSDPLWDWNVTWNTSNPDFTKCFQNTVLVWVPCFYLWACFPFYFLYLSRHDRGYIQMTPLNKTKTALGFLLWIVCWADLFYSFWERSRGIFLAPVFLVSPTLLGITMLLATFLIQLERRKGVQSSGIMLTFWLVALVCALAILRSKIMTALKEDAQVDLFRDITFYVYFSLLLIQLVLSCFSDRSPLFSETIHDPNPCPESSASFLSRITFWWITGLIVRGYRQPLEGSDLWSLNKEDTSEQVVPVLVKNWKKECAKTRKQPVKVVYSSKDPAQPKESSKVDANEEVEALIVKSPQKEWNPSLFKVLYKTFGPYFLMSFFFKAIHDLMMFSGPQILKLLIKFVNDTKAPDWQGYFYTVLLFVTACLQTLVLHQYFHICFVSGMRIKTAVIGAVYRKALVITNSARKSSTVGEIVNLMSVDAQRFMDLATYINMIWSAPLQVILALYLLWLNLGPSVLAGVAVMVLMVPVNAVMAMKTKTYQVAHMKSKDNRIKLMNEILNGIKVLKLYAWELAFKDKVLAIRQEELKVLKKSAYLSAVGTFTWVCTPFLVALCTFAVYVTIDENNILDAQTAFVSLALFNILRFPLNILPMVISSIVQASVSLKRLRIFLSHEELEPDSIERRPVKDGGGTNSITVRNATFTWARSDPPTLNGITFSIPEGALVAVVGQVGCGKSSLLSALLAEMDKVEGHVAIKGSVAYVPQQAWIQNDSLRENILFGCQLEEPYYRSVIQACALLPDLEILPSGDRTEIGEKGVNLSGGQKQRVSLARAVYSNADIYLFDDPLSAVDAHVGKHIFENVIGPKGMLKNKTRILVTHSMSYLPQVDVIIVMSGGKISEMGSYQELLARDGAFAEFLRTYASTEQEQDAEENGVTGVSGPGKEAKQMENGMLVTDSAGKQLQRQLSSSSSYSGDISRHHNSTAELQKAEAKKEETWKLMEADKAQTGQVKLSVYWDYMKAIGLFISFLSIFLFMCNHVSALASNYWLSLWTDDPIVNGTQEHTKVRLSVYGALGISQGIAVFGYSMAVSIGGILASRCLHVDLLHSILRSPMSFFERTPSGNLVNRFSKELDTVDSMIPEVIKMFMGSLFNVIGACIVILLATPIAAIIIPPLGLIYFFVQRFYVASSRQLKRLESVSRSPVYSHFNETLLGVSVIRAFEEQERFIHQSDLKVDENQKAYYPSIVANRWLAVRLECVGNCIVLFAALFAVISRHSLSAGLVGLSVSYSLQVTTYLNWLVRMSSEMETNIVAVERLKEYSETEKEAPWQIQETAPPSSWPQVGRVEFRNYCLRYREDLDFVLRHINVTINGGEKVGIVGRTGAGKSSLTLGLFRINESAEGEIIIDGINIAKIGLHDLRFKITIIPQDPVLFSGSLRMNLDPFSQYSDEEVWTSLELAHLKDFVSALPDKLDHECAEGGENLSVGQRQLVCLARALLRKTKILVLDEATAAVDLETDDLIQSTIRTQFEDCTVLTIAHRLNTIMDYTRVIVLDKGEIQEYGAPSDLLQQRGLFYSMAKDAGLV

Structure (SMILES): COc1cc2c(cc1OC)CN(CCc1ccc(NC(=O)c3cccc4c(=O)c5cccc(OC)c5[nH]c34)cc1)CC2 [GF 120918, elacridar]
- active or inactive on ABCB1 [1]: +
- active or inactive on ABCC1 [2]: −
- active or inactive on ABCG2 [3]: +

Structure (SMILES): CC(C)(C)OC(=O)NN(C(=O)N[C@@H](CCCCNC(=O)OCc1ccccc1)C(=O)OC(C)(C)C)c1ccc(C(=O)OCc2ccccc2)cc1 [IA.3, tert-Butyl ester of (2S)-6-(benzyloxycarbonylamino)-2-[1-(4′-(benzyloxycarbonyl)phenyl)-2-(tert-butoxycarbonyl)hydrazino-carbonylamino]hexanoic acid]
- selectivity toward one or other of the proteins BCRP or P-gp ([4]; BCRP versus P-gp): selective
- inhibition at 10 μM ([4]; human, HEK-293 cells transfected with ABCG2 (vector pcDNA3.1), probe mitoxantrone (5 μM), 10 μM compound, mitoxantrone efflux, HEK-293 cells, three independent experiments, read-out: BCRP/ABCG2 % efficacy 10 μM): 38%
- IC50 [5]: 330 nM
- inhibition at 2 μM ([5]; human, NIH3T3 cells transfected with ABCB1 (vector pHaMDR1/A), probe mitoxantrone (5 μM), 2 μM compound, read-out: P-gp/ABCB1 % efficacy 2 μM): 90 ± 7%
- inhibition at 10 μM ([5]; human, NIH3T3 cells transfected with ABCB1 (vector pHaMDR1/A), probe mitoxantrone (5 μM), 10 μM compound, read-out: P-gp/ABCB1 % efficacy 10 μM): 98 ± 14%
- melting point: 106 °C
- type of inhibition of ABCB1 [6]: inhibition of noncompetitive type

Structure (SMILES): O[C@@H](COc1cccc2ncccc12)CN1CCN([C@@H]2c3ccccc3[C@@H]3[C@H](c4ccccc42)C3(F)F)CC1 [Ly335979, zosuquidar]
- active or inactive on ABCC1 [2]: −
- active or inactive on ABCG2 [3]: −

Structure (SMILES): CCOC/C=C/c1ccc(-c2nc(-c3ccc(NC(C)C)cc3)c(-c3ccc(NC(C)C)cc3)[nH]2)cc1 [ONT-093, ontogen]
- active or inactive on ABCB1 [1]: +
- active or inactive on ABCC1 [2]: −

Structure (SMILES): C/C=C/C[C@@H](C)C(=O)[C@H]1C(=O)N[C@@H](C(C)C)C(=O)N(C)CC(=O)N(C)[C@@H](CC(C)C)C(=O)N[C@@H](C(C)C)C(=O)N(C)[C@@H](CC(C)C)C(=O)N[C@@H](C)C(=O)N[C@H](C)C(=O)N(C)[C@@H](CC(C)C)C(=O)N(C)[C@@H](CC(C)C)C(=O)N(C)[C@@H](C(C)C)C(=O)N1C [PSC833, valspodar]
- active or inactive on ABCB1 [1]: +
- active or inactive on ABCG2 [3]: −

Structure (SMILES): COC(=O)c1cnc2n1CCc1ccccc1C2=C1CCN(CCc2ccc(OCc3ccc4ccccc4n3)cc2)CC1 [R101933, laniquidar]
- active or inactive on ABCB1 [1]: +

Structure (SMILES): COc1cc(C(=O)C(=O)N2CCCC[C@H]2C(=O)OC(CCCc2cccnc2)CCCc2cccnc2)cc(OC)c1OC [VX-710, biricodar]
- active or inactive on ABCB1 [1]: +
- active or inactive on ABCC1 [2]: +
- active or inactive on ABCG2 [3]: +

Structure (SMILES): COc1cc2c(cc1OC)CN(CCc1ccc(NC(=O)c3cc(OC)c(OC)cc3NC(=O)c3cnc4ccccc4c3)cc1)CC2 [XR9576, tariquidar]
- active or inactive on ABCB1 [1]: +
- active or inactive on ABCG2 [3]: +
